# Assay results as given in patent publication US7291621B2, “Substituted biaryl amides C5a receptor modulators” (Neurogen Corporation, priority 2002, dated 2007).
# Biological target: T1, C5a receptor (Homo sapiens, UniProt P21730)
# T1 construct: endogenous in cells; host or cells: U937 cells differentiated with 1 mM dibutyryl cAMP
# T1 sequence (P21730 1-350): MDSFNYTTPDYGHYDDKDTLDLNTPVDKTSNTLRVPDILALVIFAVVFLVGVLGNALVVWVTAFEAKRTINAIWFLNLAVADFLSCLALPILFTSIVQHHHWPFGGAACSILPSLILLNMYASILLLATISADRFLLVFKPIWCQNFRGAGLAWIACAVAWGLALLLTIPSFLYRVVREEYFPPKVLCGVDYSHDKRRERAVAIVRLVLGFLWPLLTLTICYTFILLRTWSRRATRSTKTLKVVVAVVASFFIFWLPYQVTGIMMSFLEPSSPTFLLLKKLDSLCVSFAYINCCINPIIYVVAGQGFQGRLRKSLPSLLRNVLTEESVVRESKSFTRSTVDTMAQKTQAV
# Assay: standard assay of C5a receptor mediated calcium mobilization
# Format: cell-based
# Conditions: Table I; asterisk = tested in C5a receptor mediated calcium mobilization assay; read-out: Ca2+ Mob.
# Method: U937 cells are grown in differentiation media (1 mM dibutyrl cAMP in RPMI 1640 medium containing 10% fetal bovine serum) for 48 hrs at 37° C. then reseeded onto 96-well plates suitable for use in a FLIPR™ Plate Reader (Molecular Devices Corp., Sunnyvale Calif.). Cells are grown an additional 24 hours (to 70-90% confluence) before the assay. The cells are then washed once with Krebs Ringer solution. FLUO-3 calcium sensitive dye (Molecular Probes, Inc. Eugene, Oreg.) is added to 10 μg/mL and incubated with the cells at room temperature for 1 to 2 hours. The 96 well plates are then washed to remove excess dye. Fluorescence responses, measured by excitation at 480 nm and emission at 530 nm, are monitored upon the addition of human C5a to the cells to a final concentration of 0.01-30.0 nM, using the FLIPR™ device (Molecular Devices).
# The calcium mobilization assay described above may be readily adapted for identifying test compounds that have agonist or antagonist activity at the human C5a receptor.
# For example, in order to identify antagonist compounds, differentiated U937 cells are washed and incubated with Fluo-3 dye as described above. One hour prior to measuring the fluorescence signal, a subset of the cells is incubated with 1 μM of at least one compound to be tested. The fluorescence response upon the subsequent addition of 0.3 nM (final concentration) human recombinant C5a is monitored using the FLIPR™ plate reader. Antagonist compounds elicit at least a 2-fold decrease in the fluorescence response relative to that measured in the presence of human C5a alone. Preferred antagonist compounds elicit at least a 5-fold, preferably at least a 10-fold, and more preferably at least a 20-fold decrease in the fluorescence response relative to that measured in the presence of human C5a alone.
row,Ki,SMILES
1,< 1000 nM,"COc1ccc2c(c1)CC(N(Cc1ccccc1)C(=O)c1ccccc1-c1ccccc1)C2 (stereo not shown) [compound 71, N-benzyl-N-(5-methoxy-indan-2-yl)-1,1′-biphenyl-2-carboxamide]"
2,< 1000 nM,"Cc1ccc2c(c1)CC(N(Cc1ccccc1)C(=O)c1ccccc1-c1ccccc1)C2 (stereo not shown) [compound 72, N-benzyl-N-(5-methyl-indan-2-yl)-1,1′-biphenyl-2-carboxamide]"
3,< 1000 nM,"Cc1ccccc1CN(C(=O)c1ccccc1-c1ccccc1)C1Cc2ccccc2C1 [compound 73, N-(indan-2-yl)-N-(2-methylbenzyl)-1,1′-biphenyl-2-carboxamide]"
4,< 1000 nM,"Cc1cccc(CN(C(=O)c2ccccc2-c2ccccc2)C2Cc3ccccc3C2)c1 [compound 74, N-(indan-2-yl)-N-(3-methylbenzyl)-1,1′-biphenyl-2-carboxamide]"
5,< 1000 nM,"Cc1ccc(CN(C(=O)c2ccccc2-c2ccccc2)C2Cc3ccccc3C2)cc1 [compound 75, N-(indan-2-yl)-N-(4-methylbenzyl)-1,1′-biphenyl-2-carboxamide]"
6,< 1000 nM,"O=C(c1ccccc1-c1ccccc1)N(Cc1ccc(F)cc1)C1Cc2ccccc2C1 [compound 76, N-(indan-2-yl)-N-(4-fluorobenzyl)-1,1′-biphenyl-2-carboxamide]"
7,< 1000 nM,"O=C(c1ccccc1-c1ccccc1)N(Cc1cccc(F)c1)C1Cc2ccccc2C1 [compound 77, N-(indan-2-yl)-N-(3-fluorobenzyl)-1,1′-biphenyl-′-carboxamide]"
8,< 1000 nM,"O=C(c1ccccc1-c1ccccc1)N(Cc1ccccc1F)C1Cc2ccccc2C1 [compound 78, N-(indan-2-yl)-N-(2-fluorobenzyl)-1,1′-biphenyl-2-carboxamide]"
9,< 1000 nM,"O=C(c1ccccc1-c1ccccc1)N(Cc1ccc2c(c1)OCO2)C1Cc2ccccc2C1 [compound 79, N-(1,3-benzodioxol-5-ylmethyl)-N-(indan-2-yl)-1,1′-biphenyl-2-carboxamide]"
10,< 1000 nM,"O=C(c1ccccc1-c1ccccc1)N(Cc1ccc(F)c(F)c1)C1Cc2ccccc2C1 [compound 80, N-(3,4-difluorobenzyl)-N-(indan-2-yl)-1,1′-biphenyl-2-carboxamide]"
11,< 1000 nM,"COc1ccccc1CN(C(=O)c1ccccc1-c1ccsc1)C1Cc2ccccc2C1 [compound 81, N-(indan-2-yl)-N-(2-methoxybenzyl)-2-thien-3-ylbenzamide]"
12,< 1000 nM,"COc1ccccc1CN(C(=O)c1ccccc1-c1ccccc1F)C1Cc2ccccc2C1 [compound 82, N-(indan-2-yl)-2′-fluoro-N-(2-methoxybenzyl)-1,1′-biphenyl-2-carboxamide]"
13,< 1000 nM,"COc1ccc(CN(C(=O)c2ccccc2-c2ccsc2)C2Cc3ccccc3C2)cc1 [compound 83, N-(indan-2-yl)-N-(4-methoxybenzyl)-2-thien-3-ylbenzamide]"
14,< 1000 nM,"COc1cc(CN(C(=O)c2ccccc2-c2ccsc2)C2Cc3ccccc3C2)cc(OC)c1 [compound 84, N-(indan-2-yl)-N-(3,5-dimethoxybenzyl)-2-thien-3-ylbenzamide]"
15,< 1000 nM,"O=C(c1ccccc1-c1ccsc1)N(Cc1cccc(-c2ccsc2)c1)C1Cc2ccccc2C1 [compound 85, N-(indan-2-yl)-2-thien-3-yl-N-(3-thien-3-ylbenzyl)benzamide]"
16,< 1000 nM,"O=C(c1ccccc1-c1ccsc1)N(Cc1ccc2ccccc2c1)C1Cc2ccccc2C1 [compound 86, N-(indan-2-yl)-N-(2-naphthylmethyl)-2-thien-3-ylbenzamide]"
17,< 1000 nM,"O=C(c1ccccc1-c1ccccc1F)N(Cc1ccccc1)Cc1ccccc1 [compound 87, N,N-dibenzyl-2′-fluoro-1,1′-biphenyl-2-carboxamide]"
18,< 1000 nM,"Cc1ccc(CN(C(=O)c2ccccc2-c2ccc(C)cc2)C2Cc3ccccc3C2)cc1 [compound 88, N-(indan-2-yl)-4′-methyl-N-(4-methylbenzyl)-1,1′-biphenyl-2-carboxamide]"
19,< 1000 nM,"COc1cccc(-c2ccccc2C(=O)N(Cc2ccc(C)cc2)C2Cc3ccccc3C2)c1 [compound 89, N-(indan-2-yl)-3′-methoxy-N-(4-methylbenzyl)-1,1′-biphenyl-2-carboxamide]"

row,Ki,SMILES
1,< 1000 nM,"Cc1ccc(CN(C(=O)c2ccccc2-c2ccccc2F)C2Cc3ccccc3C2)cc1 [compound 90, N-(indan-2-yl)-2′-fluoro-N-(4-methylbenzyl)-1,1′-biphenyl-2-carboxamide]"
2,< 1000 nM,"Cc1ccc(-c2ccccc2C(=O)N(Cc2ccc(F)cc2)C2Cc3ccccc3C2)cc1 [compound 91, N-(indan-2-yl)-N-(4-fluorobenzyl)-4′-methyl-1,1′-biphenyl-2-carboxamide]"
3,< 1000 nM,"COc1cccc(-c2ccccc2C(=O)N(Cc2ccc(F)cc2)C2Cc3ccccc3C2)c1 [compound 92, N-(indan-2-yl)-N-(4-fluorobenzyl)-3′-methoxy-1,1′-biphenyl-2-carboxamide]"
4,< 1000 nM,"O=C(c1ccccc1-c1ccccc1F)N(Cc1ccc(F)cc1)C1Cc2ccccc2C1 [compound 93, N-(indan-2-yl)-2′-fluoro-N-(4-fluorobenzyl)-1,1′-biphenyl-2-carboxamide]"
5,< 1000 nM,"Cc1ccc(-c2ccccc2C(=O)N(Cc2ccccc2F)C2Cc3ccccc3C2)cc1 [compound 94, N-(indan-2-yl)-N-(2-fluorobenzyl)-4′-methyl-1,1′-biphenyl-2-carboxamide]"
6,< 1000 nM,"Cc1ccc(-c2ccccc2C(=O)N(Cc2cccc(F)c2)C2Cc3ccccc3C2)cc1 [compound 95, N-(indan-2-yl)-N-(3-fluorobenzyl)-4′-methyl-1,1′-biphenyl-2-carboxamide]"
7,< 1000 nM,"O=C(c1ccccc1-c1ccccc1F)N(Cc1cccc(F)c1)C1Cc2ccccc2C1 [compound 96, N-(indan-2-yl)-2′-fluoro-N-(3-fluorobenzyl)-1,1′-biphenyl-′-carboxamide]"
8,< 1000 nM,"Cc1ccc(-c2ccccc2C(=O)N(Cc2cccc(C)c2)C2Cc3ccccc3C2)cc1 [compound 97, N-(indan-2-yl)-4′-methyl-N-(3-methylbenzyl)-1,1′-biphenyl-2-carboxamide]"
9,< 1000 nM,"COc1cccc(-c2ccccc2C(=O)N(Cc2cccc(C)c2)C2Cc3ccccc3C2)c1 [compound 98, N-(indan-2-yl)-3′-methoxy-N-(3-methylbenzyl)-1,1′-biphenyl-2-carboxamide]"
10,< 1000 nM,"Cc1cccc(CN(C(=O)c2ccccc2-c2ccccc2F)C2Cc3ccccc3C2)c1 [compound 99, N-(indan-2-yl)-2′-fluoro-N-(3-methylbenzyl)-1,1′-biphenyl-2-carboxamide]"
11,< 1000 nM,"Cc1ccc(-c2ccccc2C(=O)N(Cc2ccccc2C)C2Cc3ccccc3C2)cc1 [compound 100, N-(indan-2-yl)-4′-methyl-N-(2-methylbenzyl)-1,1′-biphenyl-2-carboxamide]"
12,< 1000 nM,"COc1cccc(CN(C(=O)c2c(OC)cccc2-c2ccccc2)C2Cc3ccccc3C2)c1 [compound 101, N-(indan-2-yl)-3-methoxy-N-(3-methoxybenzyl)-1,1′-biphenyl-2-carboxamide]"
13,< 1000 nM,"COc1cccc(CN(C(=O)c2cc(OC)ccc2-c2ccc(C)s2)C2Cc3ccccc3C2)c1 [compound 102, N-(indan-2-yl)-5-methoxy-N-(3-methoxybenzyl)-2-(5-methylthien-2-yl)benzamide]"
14,< 1000 nM,"COc1cccc(CN(C(=O)c2cc(OC)ccc2-c2ccccc2)C2Cc3ccccc3C2)c1 [compound 103, N-(indan-2-yl)-4-methoxy-N-(3-methoxybenzyl)-1,1′-biphenyl-2-carboxamide]"
15,< 1000 nM,"COc1cccc(CN(C(=O)c2cc(OC)ccc2-c2ccsc2)C2Cc3ccccc3C2)c1 [compound 104, N-(indan-2-yl)-5-methoxy-N-(3-methoxybenzyl)-2-thien-3-ylbenzamide]"
16,< 1000 nM,"COc1ccc(-c2ccccc2)c(C(=O)N(Cc2ccccc2C)C2Cc3ccccc3C2)c1 [compound 105, N-(indan-2-yl)-4-methoxy-N-(2-methylbenzyl)-1,1′-biphenyl-2-carboxamide]"
17,< 1000 nM,"COc1ccc(-c2ccccc2)c(C(=O)N(Cc2cccc(C)c2)C2Cc3ccccc3C2)c1 [compound 106, N-(indan-2-yl)-4-methoxy-N-(3-methylbenzyl)-1,1′-biphenyl-2-carboxamide]"
18,< 1000 nM,"COc1ccc(-c2ccccc2)c(C(=O)N(Cc2ccc(C)cc2)C2Cc3ccccc3C2)c1 [compound 107, N-(indan-2-yl)-4-methoxy-N-(4-methylbenzyl)-1,1′-biphenyl-2-carboxamide]"
